Data published in patent publication US10434134B2, “Peptide treatment for inflammation and fibrosis” (The Regents of the University of California, priority 2015, dated 2019).
One block for each compound: values may come before it. Where a SMILES comes first, the peptide text is derived from it. Where no end group is shown, it is not given here. [ ]: non-standard residue; d: D form. Mpa = O=C(O)CCS

Experiments:
[1] = Plasma levels of peptide and MPR-intermediate after IV PEGylated-peptide 361332; assay type: in vivo; settings: CD-1 mouse, n = 1
Text: Studies using the PEGylated-peptide 361332 are provided
Levels of Peptide and MPR-Intermediate in Plasma Samples

[2] = tested on: Human Activated Liver Myofibroblasts; assay: Cell death of activated primary human liver myofibroblasts in culture; assay type: cell-based; parameters: concentration or dose not given beside the values
Text: (§1) Assays were used in a step-wise manner to select the safest and most efficient peptides (including apoptosis assays in activated primary human liver myofibroblasts; cell-free caspase 8 activation assays; acute liver injury/fibrogenesis models; toxicology assays in highly differentiated, primary human hepatocyte cultures and in mice).

[3] = tested on: primary mouse and human hepatocytes
Text: as §1

[4] = tested on: Mouse Activated Liver Myofibroblasts; assay: Cell death of activated primary mouse liver myofibroblasts in culture; assay type: cell-based
Mouse toxicity (in vivo) = settings: for Mouse Toxicity (in vivo): 20 mg/kg
Text: as §1

[5] = tested on: CCl4-induced liver fibrosis in mice; assay: Chronic 16-wk CCl4 mouse model of liver fibrosis (Example 2); assay type: in vivo; settings: for decrease of liver fibrosis / Liver fibrosis, quantification of the Sirius stain (percentage fibrosis/area): CCl4 16-wk; for decrease of liver fibrosis: 7 μg IP once per week from week-8; for Liver fibrosis, quantification of the Sirius stain (percentage fibrosis/area): 7 μg peptide linked to 420 μg PEG-30 kDa once a week from week-8, n=6/group
Description: FIGS. 2A-2B. High efficacy of the therapeutic PEG-30 kDa-peptides in a chronic mouse model of liver fibrosis. All groups of mice (except control) received CCl4 administration for 16-wk (n=6/group). The CCl4 treatment group received only the hepatotoxin, while the other groups also received the indicated therapeutic PEG-30 kDa-peptide (7 μg of peptide linked to 420 μg PEG-30 kDa once a week) starting at week-8. FIG. 2A. Liver fibrosis was determined by quantification of the Sirius stain (percentage fibrosis/area) as described (7; 25): control (0.02+/−0.01); lead peptide (0.8+/−0.7); alternate peptide 1 (2.1+/−1.0); alternate peptide 2 (3.5+/−1.2) and CCl4 (6.7+/−1.6%). P<0.0001 for lead peptide 1 and P<0.001 for alternate peptides 1 and 2. FIG. 2B. Liver fibrosis was detected histologically by the trichrome stain for liver fibrosis as it is the clinical standard. The control animals (receiving only vehicle control) had negligible fibrosis (stage 0-1/VI); animals receiving CCl4 for 16 weeks developed severe fibrosis (stage 5/VI or 6/VI; which would be clinically significant in patients); while animals receiving CCl4 for 16 weeks and also the lead PEG-30 kDa-peptide 1 starting at week-8 had minor fibrosis (stage 1-2/VI; which would not be clinically significant in patients).
The therapeutic lead PEG-peptides underwent a systematic analysis of efficacy and safety in a classical chronic liver fibrosis model (7; 15; 24; 38). CCl4 (a human hepatotoxin) was administered to mice for 16-wk as a classical model of liver fibrosis (7). The three selected therapeutic PEG-peptides were administered once a week IP (7 μg of peptide linked to PEG) starting at week 8, once severe liver fibrosis was already established. The efficacy of the three selected PEG peptides included quantitative analysis of liver fibrosis (7). CCl4 administration to mice for 16-wk induced liver cirrhosis (FIGS. 2A and 2B). […] This mimics the treatment given for several years to a patient with established severe liver fibrosis.
The Ac-Lys-D-Ala-D-Val-Asp-NH2 was administered IP (7 μg of peptide linked to PEG-30 kDa) once/week for an additional 4 or 8 weeks. The CCl4 administration continued for 4 or 8 weeks. The Ac-Lys-D-Ala-D-Val-Asp-NH2 peptide inhibited liver fibrosis by 8-fold.
The parent peptide inhibited liver fibrosis by only 2 to 3-fold.

[6] = tested on: Bleomycin-induced lung fibrosis in C/EBPβ-wt mice; assay: Bleomycin mouse model of lung fibrosis, various administration routes (Example 11); assay type: in vivo; settings: for decrease in lung fibrosis: days 10, 17 and 24
Description: C/EBPβ-wt mice received Bleomycin administration as described above. On day-10, once the fibrotic reaction is established, mice received i) PEG-30 kDa-Lys-DAla-DVal-Asp-NH2 intraperitoneally (IP) 10 μg of peptide linked to PEG, on days 10, 17 and 24); or ii) peptide PEG-30 kDa-Lys-DAla-DVal-Asp-NH2 by inhalation (mean particle size […]—which reaches efficiently the alveoli-, 800 μg of peptide on days 10, 17 and 24; specific inhalation parameters are shown in Table 2). The peptide was administered for less than 1 hour a day [on days 10, 17, and […]] via nose-only inhalation of the test material aerosol at a nominal concentration of 1.0 mg/L [800 μg/dose]; or iii) peptide PEG-30 kDa-Lys-DAla-DVal-Asp-NH2 by intratracheal instillation (40 μg of peptide on days 10, 17 and 24).
Control groups received sterile water instead of Bleomycin; peptide IP; peptide by inhalation; or peptide by intratracheal instillation. Animals were sacrificed on day 27. The left lung was inflated with fixative, analyzed by trichrome stain and quantified in its entirety by the Odyssey Visualization microscopy software protocol to minimize analytical errors as described previously (Ramamoorthy et al., 2009, American Journal of Physiology, Endocrinology and Metabolism 297: e392-401). The right lung was snap frozen in liquid nitrogen and used for IMH, immunoblots and qRT-PCR.

[7] = tested on: CCl4-induced acute liver injury in mice; assay: Acute CCl4 liver injury and activation of liver myofibroblasts in mice (Example 1); assay type: in vivo, mouse; parameters: serum ALT: unit not given here; settings: for minimizing acute liver injury and activation of myofibroblasts: compared with the lead PEG peptide
Description: FIG. 1. The therapeutic lead peptide inhibits the activation of liver myofibroblasts and liver injury that induces fibrosis following exposure to the human hepatotoxin CCl4. A single dose of CCl4 was administered to C/EBPβ-wt mice (4). Eight hours later, animals received an IP injection of the therapeutic lead peptide (5 μg of peptide linked to PEG). Animals were sacrificed at 30 hr after the CCl4 administration. The animals receiving only CCl4 had intense activation of myofibroblasts (as determined by α-SMA) (upper row) and severe liver injury (as assessed by standard clinical examination just before sacrifice); the lead peptide blocked the discoloration and granular appearance of severe liver injury. The livers of treated mice were similar to control (second row). The histopathology induced by CCl4 was activation of myofibroblasts (α-SMA), severe liver injury (H&E stain) with collapse of the architecture (Reticulin stain). The therapeutic PEG-30 kDa-peptide decreased both the activation of myofibroblasts and the injury to the liver.
To induce acute liver injury, a single dose of the human hepatotoxin Carbon Tetrachloride (CCl4) was administered to normal mice (4). Eight hours later, animals received an IP injection of the lead therapeutic PEG-30 kDa-peptide (5 μg of the peptide linked [peptide to PEG at 1:60] to the PEG-30 kDa). Animals were sacrificed after 30 hr, at the peak of hepatocyte death as measured by ALT (a clinical end-point used routinely in clinical practice and by the FDA in the evaluation of liver toxicity in human drug studies) (16). […] There was severe acute liver injury in animals receiving CCl4 but mild-to-moderate injury in animals receiving both CCl4 and the lead therapeutic compound (FIG. 1).

[8] = liver, 30 hr after CCl4, single IP 5 μg at 8 hr

Conc. (ng/mL) in plasma ([1]; 4 hours after IV PEGylated-peptide 361332, 7.5 mg/kg peptide equivalent): 1291 ng/mL | Conc. (ng/mL) in plasma ([1]; 8 hours after IV PEGylated-peptide 361332, 7.5 mg/kg peptide equivalent): 900 ng/mL | Conc. (ng/mL) in plasma ([1]; 24 hours after IV PEGylated-peptide 361332, 7.5 mg/kg peptide equivalent): 921 ng/mL | Conc. (ng/mL) in plasma ([1]; 48 hours after IV PEGylated-peptide 361332, 7.5 mg/kg peptide equivalent): 1523 ng/mL
Compound: CC(C)[C@@H](NC(=O)[C@@H](C)NC(=O)[C@H](CCCCN)NC(=O)CCS)C(=O)N[C@@H](CC(=O)O)C(N)=O [Mpr-Lys-DAla-DVal-Asp-NH2] ([Mpa]K[dA][dV]D-NH2)

Compound: Ac-Lys-Ala-Val-Asp-NH2 (Ac-KAVD-NH2) [Parent peptide, reference compound]
Human Activated Liver Myofibroblasts Death Cell (%) [2]: 80.9% | Hepatocyte Toxicity [20 ng/ml] [3]: No toxicity | Mouse Activated Liver Myofibroblasts Death Cell (%) [20 ng/ml] [4]: 89.5% | Mouse Toxicity (in vivo) (Mouse toxicity (in vivo)): No: | toxicity issues observed in mice (Mouse toxicity (in vivo); mouse, in vivo): no toxicity issues

Compound: PEG-30 kDa-Lys-DAla-DVal-Asp-NH2 [Lead therapeutic peptide]
decrease of liver fibrosis [5]: > 8 fold | Liver fibrosis, quantification of the Sirius stain (percentage fibrosis/area) [5]: 0.8+/−0.7% | Liver fibrosis stage, trichrome stain ([5]; CCl4 16 weeks, peptide starting at week-8): 1-2 /VI | Human Activated Liver Myofibroblasts Death Cell (%) [2]: 86.2% | Hepatocyte Toxicity [20 ng/ml] [3]: No toxicity | Mouse Activated Liver Myofibroblasts Death Cell (%) [20 ng/ml] [4]: 90.5% | Mouse Toxicity (in vivo) (Mouse toxicity (in vivo)): No: | inhibition in lung alveolar epithelial cell apoptosis ([6]; IP): ~60% | surfactant protein-C (SFPC) expression by quantitative IHC ([6]; IP): essentially normal | decrease in lung fibrosis ([6]; IP 10 μg of peptide linked to PEG): ~60% | lung inflammation as determined by the expression of IL-23R (marker of Th-17 cells) ([6]; all treatments (IP, inhalation, intratracheal)): decreased | improvement of Tidal Volume ([6]; all treatments (IP, intratracheal instillation, inhalation), 14-day treatment): > 35% | inhibition in lung alveolar epithelial cell apoptosis ([6]; inhalation): ~60% | surfactant protein-C (SFPC) expression by quantitative IHC ([6]; inhalation): essentially normal | decrease in lung fibrosis ([6]; inhalation 800 μg of peptide): ~60% | efficacy on lung fibrosis ([6]; intratracheal instillation 40 μg of peptide, days 10, 17 and 24 (therapeutic positive control)): outstanding efficacy | TGFβ1 by RT-PCR ([6]; three peptide formulations): decreased | collagen α 1 by RT-PCR ([6]; three peptide formulations): decreased | serum ALT ([7]; 30 hr after CCl4, single IP treatment (5 μg peptide linked to PEG-30 kDa) 8 hr after CCl4): 6,754+/−905 | acute liver injury severity ([7]; CCl4 plus peptide, 30 hr): mild-to-moderate | expression of α-SMA in the liver (activated liver myofibroblasts) ([7]; CCl4 plus peptide, 30 hr): minor expression | IL-6 mRNA [7, 8]: normal | TNF-α mRNA, increase from control values [7, 8]: 4 fold | albumin mRNA, decrease from control values [7, 8]: 2 fold

Compound: Peg-30kDa-Lys-Ala-DVal-Asp-NH2 [Alternate therapeutic peptide 2]
decrease of liver fibrosis [5]: ~2 fold | Liver fibrosis, quantification of the Sirius stain (percentage fibrosis/area) [5]: 3.5+/−1.2% | Human Activated Liver Myofibroblasts Death Cell (%) [2]: 72.3% | Hepatocyte Toxicity [20 ng/ml] [3]: No toxicity | Mouse Activated Liver Myofibroblasts Death Cell (%) [20 ng/ml] [4]: 57.1% | minimizing acute liver injury and activation of myofibroblasts [7]: performed similarly to the lead PEG peptide

Compound: Peg-30kDa-Lys-DAla-Val- Asp-NH2 [Alternate therapeutic peptide 1]
decrease of liver fibrosis [5]: ~3 fold | Liver fibrosis, quantification of the Sirius stain (percentage fibrosis/area) [5]: 2.1+/−1.0% | Human Activated Liver Myofibroblasts Death Cell (%) [2]: 67.9% | Hepatocyte Toxicity [20 ng/ml] [3]: No toxicity | Mouse Activated Liver Myofibroblasts Death Cell (%) [20 ng/ml] [4]: 79.9% | minimizing acute liver injury and activation of myofibroblasts [7]: performed similarly to the lead PEG peptide

Compound: [dK]AV[dD]-NH2
Human Activated Liver Myofibroblasts Death Cell (%) [2]: 44.0%

Compound: [dK]A[dV]D-NH2
Human Activated Liver Myofibroblasts Death Cell (%) [2]: 30.6%
